Assays:
[1] = literature; read-out: KD for heme; cited from earlier work
[2] = Biolayer interferometry of heme binding; conditions: compared with NCR247 (L-enantiomer)
Text: Biotinylation of heme: Hemin was biotinylated using the method exactly as described previouslyl^16. Biotin hydrazide, DCC was purchased from Sigma. COSMOSIL™ 5C18-AR-II Packed Column, 4.6 mm I.D.×150 mm from Nacalai USA (San Diego, CA) was used to separate the products. LC-MS was used to verify the correct molecular weight (969.4 Da) of biotinylated heme (in which only one of the two propionate groups of protoheme was conjugated with biotin hydrazide) as described above.
Biolayer interferometry: Biolayer interferometry was carried out using a ForteBio Octet RED96™ biolayer interferometer, following the manufacturer's instructions for a standard kinetic assay. Streptavidin-coated biosensor tips were incubated in 200 μl assay buffer (Water [pH 7.4]), each for 60s. Then biotinylated heme (or NCR247 in the case of Fe(III) PPIX dimethyl ester chloride) was loaded onto each biosensor tip at the defined concentration until the binding signal reached a value of >1.4. Biosensor tip loading was followed by incubation in assay buffer for 60s. Association between the ligand-heme and the analyte-various variants of NCR247 (Increasing concentrations in assay buffer) was observed over a time frame of ˜116 s, in assay buffer. To stop binding kinetics for dissociation, the biosensor tips were placed back into assay buffer not containing any analyte, for 120 s. Curves were fit with Global fit analysis and Data analysis and KD calculation was performed using Fortebio™ data analyses 8.2 software as described previously^89.

[3] = UV-Vis spectroscopy / colour change on heme addition; assay type: binding; conditions: heme added to peptide, ferric heme
Protocol: Heme preparation: Hemin solutions were always prepared in 0.1 M NaOH and used within 30 min of preparation. 1:1000 and 1:500 dilution of the stock solution was made and stock concentration was measured by pyridine hemochrome assay as described previously^85 by measuring the absorption at 557 nm using the extinction coefficient of pyridine hemochromogen (34.7 mM^−1 cm^−1).
UV-VIS spectroscopy: All absorption spectra were collected in a Tecan Spark™ 10 M microplate reader using black polystyrene 96-well plates. Absorbance from 300 nm to 700 nm was recorded with a 5 nm interval after an initial shaking at 100 rpm for 15 secs. Heme binding to synthesized peptide: Water (pH 7.4) was used in all reactions and was first added to the wells. Peptides solubilized in water were added and then heme solubilized in 0.1 M NaOH was added, mixed thoroughly and measurements were taken immediately. Peptide and heme volume were kept to a maximum of 5 ul in volume. For all the absorption curves (except Extended FIG. 3a) […] was used. The same was also repeated with 0.1 M Tris buffer (pH 7.4) as a base buffer instead of water.

Sinorhizobium meliloti [4] = assay: S. meliloti cell death in 24 hours (plating); assay type: cell-based
Sinorhizobium meliloti [5] = assay: S. meliloti growth curve; assay type: cell-based; conditions: increasing amounts of peptide; minimal medium
Protocol: Growth curve: All growth curve experiments were performed in a Tecan SPARK 10M microplate reader using polystyrene flat bottomed, non-treated, sterile 96 well plates. Overnight cultures grown in LBMC were washed and were subcultured (1:100 dilution) in minimal medium supplemented with respective iron concentrations. The plates were programed to continuously shake at 150 rpm and temperature maintained at 30° C. Optical density was measured at 600 nm every 60 minutes.

Aβ (1-42) peptide: human Aβ amyloid peptide derived from cleavage of the amyloid precursor protein
Kd [1]: 140 nM

RNGCIVDARCPYQKCSYPLYCRRR [M. sativa (alfalfa) NCR247 ortholog, NCR247 ortholog of M. sativa with a 4-amino acid change]
heme binding affinity, in words [2]: binds heme with the same affinity

RNGCIVDPRCPYQQCRRPLYCAAA [NCR247 (RRR to AAA mutant)]
heme binding (absorption peaks 366 nm, ~450 nm; colour change) [3]: binds heme | Cell death in 24 hours (Sinorhizobium meliloti [4]; 6 uM peptide): No cell death observed | reduction in number of S. meliloti cells (bactericidal effect) (Sinorhizobium meliloti [4]; incubated 24 hours, plated in non-selective medium): causes no reduction in number of S. meliloti cells | inhibition of growth of S. meliloti (bacteriostatic effect) (Sinorhizobium meliloti [5]): does not inhibit the growth of Sinorhizobium meliloti

haempexin: heme scavenger
Kd [1]: < 1000 nM

hemoglobin
Kd [1]: 10 nM

Source: patent publication US12065468B2, “Heme-binding small peptide” (priority 2021, dated 2024)
